# Assay results reported in patent US20090186949A1, “Method for Treating Endothelial and Epithelial Cell Disorders by Administering High Molecular Weight PEG-Like Compounds” (THE UNIVERSITY OF CHICAGO, priority 2006, published 2009).
# “Also recorded” adds a separate entry of the source. Read-outs that look alike come from different tables or passages of the source.
# T1: OprF (Pseudomonas aeruginosa, UniProt P13794)
# T1 sequence (P13794 25-350): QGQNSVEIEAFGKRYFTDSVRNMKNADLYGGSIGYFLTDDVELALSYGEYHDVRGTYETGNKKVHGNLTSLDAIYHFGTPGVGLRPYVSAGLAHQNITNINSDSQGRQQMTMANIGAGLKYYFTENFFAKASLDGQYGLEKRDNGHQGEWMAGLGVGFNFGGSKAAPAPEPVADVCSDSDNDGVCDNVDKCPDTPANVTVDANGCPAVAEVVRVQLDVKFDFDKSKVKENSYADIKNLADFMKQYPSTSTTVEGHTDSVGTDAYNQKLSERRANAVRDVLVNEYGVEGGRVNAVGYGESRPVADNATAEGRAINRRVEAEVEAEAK
# B1: adenosine deaminase: enzyme added to deplete the media of adenosine (protein, UniProt P00813 2-363, looked up)
# Adenosine deaminase: AQTPAFDKPKVELHVHLDGSIKPETILYYGRRRGIALPANTAEGLLNVIGMDKPLTLPDFLAKFDYYMPAIAGCREAIKRIAYEFVEMKAKEGVVYVEVRYSPHLLANSKVEPIPWNQAEGDLTPDEVVALVGQGLQEGERDFGVKARSILCCMRHQPNWSPKVVELCKKYQQQTVVAIDLAGDETIPGSSLLPGHVQAYQEAVKSGIHRTVHAGEVGSAEVVKEAVDILKTERLGHGYHTLEDQALYNRLRQENMHFEICPWSSYLTGAWKPDTEHAVIRLKNDQANYSLNTDDPLIFKSTLDTDYQMTKRDMGFTEEEFKRLNINAAKSSFLPEDEKRELLDLLYKAYGMPPSASAGQNL
# B2: PA-I: purified lectin/adhesin of P. aeruginosa, four 13 kDa subunits, binds D-galactose (protein, UniProt Q05097 2-122, looked up)
# PA-I galactophilic lectin: AWKGEVLANNEAGQVTSIIYNPGDVITIVAAGWASYGPTQKWGPQGDREHPDQGLICHDAFCGALVMKIGNSGTIPVNTGLFRWVAPNNVQGAITLIYNDVPGTYGNNSGSFSVNIGKDQS
# How the values were obtained:
# [1] = system: P. aeruginosa PA27853/PLL-EGFP
# [2] = system: PA-I lectin/adhesin expression in P. aeruginosa; assay type: cell-based, Pseudomonas aeruginosa
# [3] = system: P. aeruginosa PAO1; assay type: cell-based, Pseudomonas aeruginosa
# [4] = system: intestinal epithelial cells; settings: 0.6% solution; cited from earlier work
# [5] = system: Endothelial cells; experiment: Pretreatment of endothelial cells followed by S1P or HMW PEG challenge (TEER); assay type: cell-based
# [6] = system: human lung microvessel endothelial cells (HLMVEC); experiment: Transendothelial electrical resistance (TEER) by ECIS, HMW PEG in serum-free EBM; assay type: cell-based
# [7] = system: ERK and MLC phosphorylation; experiment: ERK and MLC phosphorylation by Western blot; assay type: cell-based, human; settings: 1 μM S1P, 5 minutes
# [8] = system: HPAECs; experiment: Intracellular calcium (Fura-2); assay type: cell-based, human; settings: 1 U/ml thrombin; 1 μM S1P
# [9] = system: mice inoculated with PA27853; experiment: Mice with slow release morphine pellets drinking PA27853
# [10] = system: P. aeruginosa (strain PAO1) whole cells and membrane fractions; assay type: binding, Pseudomonas aeruginosa
# [11] = system: Endothelial cells
# [12] = system: rhlI / C4-HSL in P. aeruginosa PAO1; experiment: Quorum sensing activation (rhlI mRNA, C4-HSL in supernatants); assay type: cell-based, Pseudomonas aeruginosa
# [13] = system: Caco-2 cells; experiment: TEER of Caco-2 monolayers inoculated with PA27853 with IFN-γ; assay type: cell-based
# From the text: In addition, strains were exposed to apical media from Caco-2 cells basolaterally exposed to one or more of the various epithelial-derived cytokines. Basolateral exposure of Caco-2 cells to the combination of IFN γ and TNF α activates cellular signaling proteins that dramatically alter tight junctional proteins and function. Media from Caco-2 cells exposed to various combinations of these cytokines had no effect on PA-I expression. However, IFN-γ alone induced a direct effect on PA-I expression while none of the other compounds alone had any effect (FIG. 4). […] Using ELISA, immunofluorescence microscopy, and flow cytometry, the binding characteristics of IFNγ were determined for both whole bacteria and membrane fractions of P. aeruginosa. […] These effects were also observed with strain PAO1. […] This protein can also be immunoprecipitated from E. coli (FIG. 6C). Next, IFN-γ binding specificity to whole bacterial cells was determined using reiterative binding studies in the presence of various gram-negative bacterial strains, including P. aeruginosa. […] Finally, in order to determine if PA-I was functionally expressed in PA27853 in the presence IFN-γ, PA27853 was inoculated onto Caco-2 cell monolayers in the presence of IFN-γ and the effect on barrier dysregulating dynamics of PA27853 against this cell line were assessed to determine if IFN-γ shifted the dynamics. […]
# [14] = molecular target: T1, OprF; experiment: Binding of IFN-γ to purified OprF (ELISA); settings: dose-dependent
# [15] = molecular target: protein on the surface of whole cells of P. aeruginosa (strain PAO1)
# [16] = system: MDCK monolayers; experiment: Purified PA-I on epithelial monolayers (TEER, exotoxin A flux); assay type: cell-based
molecule,measurement,setting,value
Nc1ncnc2c1ncn2[C@@H]1O[C@H](COP(=O)(O)OP(=O)(O)O)[C@@H](O)[C@H]1O [ADP],PA-I promoter activity / expression (fluorescence),[1],no evident inducing effects
Nc1ncnc2c1ncn2[C@@H]1O[C@H](COP(=O)(O)O)[C@@H](O)[C@H]1O [AMP],PA-I promoter activity / expression (fluorescence),[1],no evident inducing effects
Nc1ncnc2c1ncn2[C@@H]1O[C@H](COP(=O)(O)OP(=O)(O)OP(=O)(O)O)[C@@H](O)[C@H]1O [ATP],PA-I promoter activity / expression (fluorescence),[1],no evident inducing effects
"CCCC(=O)N[C@H]1CCOC1=O [C4-HSL, C4-homoserine lactone]",PA-I expression in vitro,[2],induced PA-I expression
same,induction of PA-I mRNA (Northern blot),[2],Induction of PA-I mRNA was observed
same,PCN production in mvfR mutants,[3],none of these mutants produced PCN
same,bacterial growth in TSB media,[3],Neither compound had an effect on bacterial growth
same,cell density at onset of PCN production,[3],a shift in the production of PCN to lower cell densities
C[C@@H](O)C(=O)O [D-lactate],PA-I promoter activity / expression (fluorescence),[1],had no effect on PA-I promoter activity
"CC(=O)N[C@H]1C(O)O[C@H](CO)[C@H](O)[C@@H]1O (stereo partly drawn) [GalNAc, N-acetyl-D-galactosamine]",adhesion of P. aeruginosa to intestinal epithelial cells,[4],markedly decreased adhesion to intestinal epithelial cells
C[C@H](O)C(=O)O [L-lactate],PA-I promoter activity / expression (fluorescence),[1],had no effect on PA-I promoter activity
"COC(=O)c1ccccc1N [MA, methyl anthranilate]","ability of U-50,488 to enhance PCN production",[3],"inhibited the ability of U-50,488 to enhance PCN production; also recorded: attenuated the ability of U-50,488 to enhance PCN production"
"Oc1ccc2c3c1O[C@H]1c4[nH]c5c(c4C[C@@]4(O)[C@@H](C2)N(CC2CC2)CC[C@]314)C[C@@]1(O)[C@H]2Cc3ccc(O)c4c3[C@@]1(CCN2CC1CC1)[C@H]5O4 [NOR, nor-binaltorphimine]","U-50,488-enhanced PCN production",[3],completely inhibited enhanced PCN production
CCCCCCCCCCCCCC(=O)O[C@@H]1[C@@H](C)[C@@]2(O)[C@@H](C=C(CO)C[C@]3(O)C(=O)C(C)=C[C@@H]23)[C@@H]2C(C)(C)[C@]12OC(C)=O [PMA],time for TEER increase to return to baseline,"[5]; 100 nM PMA, baseline 1250 ohm",8 h
"CCCCCCCCCCCCC/C=C/[C@@H](O)[C@@H](N)COP(=O)(O)O [S1P, sphingosine 1-phosphate]",time to maximum barrier enhancing effect,[6]; TEER,10 to 15 min
same,increase in resistance (maximum barrier enhancing effect),"[6]; TEER, human pulmonary microvessel EC",40%
same,effect of PMA pretreatment on the response to stimulation,"[5]; pretreated 100 nM PMA 24 hours, challenge 1 μM S1P or 8% HMW PEG",Blocked
same,effect of PTX pretreatment on the response to stimulation,"[5]; pretreated 100 ng/ml PTX 4 hours, challenge 1 μM S1P or 8% HMW PEG",Blocked
same,effect of S1P pretreatment on the response to stimulation,"[5]; pretreated 1 μM S1P 24 hours, challenge 1 μM S1P or 8% HMW PEG",No effect
same,effect of FTY720 pretreatment on the response to stimulation,"[5]; pretreated 10 μM FTY720 24 hours, challenge 1 μM S1P or 8% HMW PEG",Blunted
same,effect of FTY analog pretreatment on the response to stimulation,"[5]; pretreated 10 μM FTY analog 24 hours, challenge 1 μM S1P or 8% HMW PEG",Blunted
same,ERK phosphorylation,[7],drastic increase in ERK phosphorylation
same,intracellular calcium on stimulation of ECs,[8],induced intracellular calcium spikes
OC[C@H]1O[C@@H](n2cnc3c(O)ncnc32)[C@H](O)[C@@H]1O [inosine],timing of PA-I induction compared to adenosine,[1],induced PA-I expression at an earlier time point and at lower cell densities (OD) compared to adenosine
same,concentration inducing PA-I expression relative to adenosine,[1]; less than adenosine,10 fold
OC[C@H]1O[C@H](OCC2O[C@@H](O)[C@H](O)[C@@H](O)[C@@H]2O)[C@H](O)[C@@H](O)[C@H]1O (some centres unmarked) [mellibiose],adhesion of P. aeruginosa to intestinal epithelial cells,[4],markedly decreased adhesion to intestinal epithelial cells
CN1CC[C@]23c4c5ccc(O)c4O[C@H]2[C@@H](O)C=C[C@H]3[C@H]1C5 [morphine],increase in PA-I mRNA,[2],four-fold increase
same,increase in PA-I mRNA,"[2]; PA27853, morphine 13 μM, quantitative RT-PCR",4 fold
same,mortality,[9]; PA27853,significant mortality
same,mice developing severe sepsis,[9]; PA27853 1×10^8 cfu/ml daily,4/4
NC[C@H](O)c1ccc(O)c(O)c1 [norepinephrine],PA-I expression in vitro,[2],did not change PA-I expression; also recorded: PA-I expression was not affected by this compound
EGF: human cytokine tested for membrane binding,binding to P. aeruginosa cells / cell membranes (ELISA),[10],No binding was observed
High Molecular Weight PolyEthylene Glycol [HMW PEG],exotoxin A-induced cytotoxicity,[11],completely protected
"IFN-γ: recombinant human interferon gamma, immune cytokine",PA-I expression in vitro,[2],induced PA-I expression
same,concentration giving the greatest increase in PA-I protein,[2],100 ng/mL
same,induction of PA-I mRNA (Northern blot),[2],Induction of PA-I mRNA was observed
same,pyocyanin production,[3],increased pyocyanin production
same,PA-I promoter activity / expression (fluorescence),[1],Only IFN-γ induced PA-I promoter activity
same,rhlI transcription (Northern blot),[12]; PAO1,induced rhlI transcription
same,C4-HSL synthesis,"[12]; PAO1, 100 ng/ml IFN-γ",C4-HSL synthesis was increased
same,PA27853-induced decrease in Caco-2 TEER,"[13]; 5 hour time point, PA27853 alone decreased TEER by 60%",enhanced in the presence of IFN-γ
same,"Caco-2 TEER, IFN-γ alone",[13]; without bacteria,Neither media nor IFN-γ alone altered TEER
same,binding to purified OprF,[14],purified OprF directly binds human IFN-γ
same,bacterial cells that bound IFN-γ,[10],73%±3.2%
same,binding to P. aeruginosa cells / cell membranes (ELISA),[10],avidly bound to whole fixed cells of P. aeruginosa in a dose-dependent manner
IL-4: human cytokine,binding to P. aeruginosa cells / cell membranes (ELISA),[10],No binding was observed
IL-10: human cytokine,binding to P. aeruginosa cells / cell membranes (ELISA),[10],No binding was observed
TGF-β,binding to P. aeruginosa cells / cell membranes (ELISA),[10],No binding was observed
dynorphin,PCN production,[3],enhanced PCN production in a dose-dependent manner
recombinant human IFN-γ (rH IFN-γ) (from UniProt P01579 24-166) (ligand),percent of bacterial cells that bound IFN-γ,[15],73%
thrombin,decrease in resistance,"[6]; thrombin 1 U/ml, control cells",over 50%
same,maximum decrease in resistance,"[6]; thrombin 1 U/ml, control cells",approximately 1200 ohm
same,intracellular calcium on stimulation of ECs,[8],induced intracellular calcium spikes
B1,PA-I expression after depletion of adenosine from HIF-1-α activated Caco-2 media,[1]; Caco-2,even greater increase in PA-I expression
B2,TEER of epithelial cells,[16]; purified PA-I,decreased the TEER of epithelial cells to the same degree as P. aeruginosa
same,increase in exotoxin A flux across MDCK cells,[16]; when TEER decreased below 50% of control by pure PA-I protein,five-fold increase
